From ChEMBL document CHEMBL1201862, “PubChem BioAssay data set” (2004)
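In this assay, cells in 96-well plates receive the compound at five concentrations for 48 hours. Endpoints are linearly interpolated between the surrounding concentrations. GI50: concentration for 50% inhibition of growth.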 The source made the active and inactive calls. Cut-off read from the data, not from the text of the source: active = GI50 up to about 1.1 µM and inactive = higher.

What was measured:
Experiment in all cases: inhibition of tumour cell growth, NCI panel, 48 h
SF-295 = tested on: SF-295
SN12C = tested on: SN12C
OVCAR-3 = tested on: OVCAR-3
HCT-15 = tested on: HCT-15
HCT-116 = tested on: HCT-116
SR = tested on: SR
SNB-19 = tested on: SNB-19
MOLT-4 = tested on: MOLT-4
SF-268 = tested on: SF-268
OVCAR-4 = tested on: OVCAR-4
OVCAR-8 = tested on: OVCAR-8
DU-145 = tested on: DU-145
NCI/ADR-RES = tested on: NCI/ADR-RES
SK-MEL-2 = tested on: SK-MEL-2
MCF7 = tested on: MCF7
NCI-H522 = tested on: NCI-H522
CCRF-CEM = tested on: CCRF-CEM
NCI-H460 = tested on: NCI-H460
U-251 = tested on: U-251
M14 = tested on: M14
SK-OV-3 = tested on: SK-OV-3
IGROV-1 = tested on: IGROV-1
MDA-MB-231 = tested on: MDA-MB-231
MDA-MB-435 = tested on: MDA-MB-435
CAKI-1 = tested on: CAKI-1
COLO 205 = tested on: COLO 205
UACC-62 = tested on: UACC-62
786-0 = tested on: 786-0
Hs-578T = tested on: Hs-578T
A549 = tested on: A549
SNB-75 = tested on: SNB-75
PC-3 = tested on: PC-3
RPMI-8226 = tested on: RPMI-8226
SF-539 = tested on: SF-539
OVCAR-5 = tested on: OVCAR-5
SW-620 = tested on: SW-620
UACC-257 = tested on: UACC-257
ACHN = tested on: ACHN
TK-10 = tested on: TK-10
SK-MEL-28 = tested on: SK-MEL-28
EKVX = tested on: EKVX
LOX IMVI = tested on: LOX IMVI
HT-29 = tested on: HT-29
UO-31 = tested on: UO-31
NCI-H226 = tested on: NCI-H226
BT-549 = tested on: BT-549
HCC 2998 = tested on: HCC 2998
KM12 = tested on: KM12
K562 = tested on: K562
Malme-3M = tested on: Malme-3M
HOP-62 = tested on: HOP-62
NCI-H23 = tested on: NCI-H23
HOP-92 = tested on: HOP-92
HL-60 = tested on: HL-60
RXF 393 = tested on: RXF 393
SK-MEL-5 = tested on: SK-MEL-5
MDA-N = tested on: MDA-N
A498 = tested on: A498

Cc1ccc2nc(CN3CCCCC3)cc(=O)n2c1
GI50 (SF-295): > 100 µM (inactive) | GI50 (SN12C): > 100 µM (inactive) | GI50 (OVCAR-3): > 100 µM (inactive) | GI50 (HCT-15): > 100 µM | GI50 (HCT-116): > 100 µM (inactive) | GI50 (SR): > 100 µM (inactive) | GI50 (SNB-19): > 100 µM (inactive) | GI50 (MOLT-4): > 100 µM (inactive) | GI50 (SF-268): > 100 µM (inactive) | GI50 (OVCAR-4): > 100 µM (inactive) | GI50 (OVCAR-8): > 100 µM (inactive) | GI50 (DU-145): > 100 µM (inactive) | GI50 (NCI/ADR-RES): > 100 µM (inactive) | GI50 (SK-MEL-2): > 100 µM (inactive) | GI50 (MCF7): > 100 µM (inactive) | GI50 (NCI-H522): > 100 µM (inactive) | GI50 (CCRF-CEM): > 100 µM (inactive) | GI50 (NCI-H460): > 100 µM (inactive) | GI50 (U-251): > 100 µM (inactive) | GI50 (M14): > 100 µM (inactive) | GI50 (SK-OV-3): > 100 µM (inactive) | GI50 (IGROV-1): > 100 µM (inactive) | GI50 (MDA-MB-231): > 100 µM (inactive) | GI50 (MDA-MB-435): > 100 µM (inactive) | GI50 (CAKI-1): > 100 µM (inactive) | GI50 (COLO 205): > 100 µM (inactive) | GI50 (UACC-62): > 100 µM (inactive) | GI50 (786-0): > 100 µM (inactive) | GI50 (Hs-578T): > 100 µM (inactive) | GI50 (A549): > 100 µM (inactive) | GI50 (SNB-75): > 100 µM (inactive) | GI50 (PC-3): > 100 µM (inactive) | GI50 (RPMI-8226): > 100 µM (inactive) | GI50 (SF-539): > 100 µM (inactive) | GI50 (OVCAR-5): > 100 µM (inactive) | GI50 (SW-620): > 100 µM (inactive) | GI50 (UACC-257): > 100 µM (inactive) | GI50 (ACHN): > 100 µM (inactive) | GI50 (TK-10): > 100 µM (inactive) | GI50 (SK-MEL-28): > 100 µM (inactive) | GI50 (EKVX): > 100 µM (inactive) | GI50 (LOX IMVI): > 100 µM (inactive) | GI50 (HT-29): > 100 µM (inactive) | GI50 (UO-31): > 100 µM (inactive) | GI50 (NCI-H226): > 100 µM (inactive) | GI50 (BT-549): > 100 µM (inactive) | GI50 (HCC 2998): > 100 µM (inactive) | GI50 (KM12): > 100 µM (inactive) | GI50 (K562): > 100 µM (inactive) | GI50 (Malme-3M): > 100 µM (inactive) | GI50 (HOP-62): > 100 µM (inactive) | GI50 (NCI-H23): > 100 µM (inactive) | GI50 (HOP-92): > 100 µM (inactive) | GI50 (HL-60): > 100 µM (inactive)

COC(=O)C1CCCN1C(=O)C(Cc1cn(S(=O)(=O)c2ccc(C)cc2)cn1)NC(=O)OC(C)(C)C (stereo not drawn)
GI50 (SN12C): > 100 µM (inactive) | GI50 (HCT-15): > 100 µM | GI50 (RXF 393): > 100 µM (inactive) | GI50 (HCT-116): > 100 µM (inactive) | GI50 (SR): > 100 µM (inactive) | GI50 (SNB-19): > 100 µM (inactive) | GI50 (MOLT-4): > 100 µM (inactive) | GI50 (OVCAR-8): > 100 µM (inactive) | GI50 (SK-MEL-5): > 100 µM (inactive) | GI50 (SK-MEL-2): > 100 µM (inactive) | GI50 (MCF7): > 100 µM (inactive) | GI50 (CCRF-CEM): > 100 µM (inactive) | GI50 (NCI-H460): > 100 µM (inactive) | GI50 (U-251): > 100 µM (inactive) | GI50 (M14): > 100 µM (inactive) | GI50 (IGROV-1): > 100 µM (inactive) | GI50 (MDA-MB-231): > 100 µM (inactive) | GI50 (COLO 205): > 10 µM (inactive) | GI50 (UACC-62): > 100 µM (inactive) | GI50 (786-0): > 100 µM (inactive) | GI50 (Hs-578T): > 100 µM (inactive) | GI50 (A549): > 100 µM (inactive) | GI50 (SNB-75): > 100 µM (inactive) | GI50 (PC-3): > 100 µM (inactive) | GI50 (RPMI-8226): > 100 µM (inactive) | GI50 (OVCAR-5): > 100 µM (inactive) | GI50 (SW-620): > 100 µM (inactive) | GI50 (UACC-257): > 100 µM (inactive) | GI50 (ACHN): > 100 µM (inactive) | GI50 (MDA-N): > 100 µM (inactive) | GI50 (TK-10): > 100 µM (inactive) | GI50 (SK-MEL-28): > 100 µM (inactive) | GI50 (EKVX): > 100 µM (inactive) | GI50 (HT-29): > 100 µM (inactive) | GI50 (UO-31): > 100 µM (inactive) | GI50 (NCI-H226): > 100 µM (inactive) | GI50 (BT-549): > 100 µM (inactive) | GI50 (HCC 2998): > 100 µM (inactive) | GI50 (KM12): > 100 µM (inactive) | GI50 (K562): > 100 µM (inactive) | GI50 (A498): > 100 µM (inactive) | GI50 (Malme-3M): > 100 µM (inactive) | GI50 (HOP-62): > 100 µM (inactive) | GI50 (NCI-H23): > 100 µM (inactive) | GI50 (HOP-92): > 100 µM (inactive) | GI50 (HL-60): > 100 µM (inactive)

COc1ccc(Nc2cc(O)nc(O)n2)cc1
GI50 (SF-295): > 100 µM (inactive) | GI50 (SN12C): > 100 µM (inactive) | GI50 (OVCAR-3): > 100 µM (inactive) | GI50 (HCT-15): > 100 µM | GI50 (RXF 393): 24.7 µM (inactive) | GI50 (HCT-116): > 100 µM (inactive) | GI50 (SR): > 100 µM (inactive) | GI50 (SNB-19): > 100 µM (inactive) | GI50 (MOLT-4): > 100 µM (inactive) | GI50 (SF-268): > 100 µM (inactive) | GI50 (OVCAR-4): > 100 µM (inactive) | GI50 (OVCAR-8): > 100 µM (inactive) | GI50 (DU-145): > 100 µM (inactive) | GI50 (SK-MEL-5): > 100 µM (inactive) | GI50 (NCI/ADR-RES): > 100 µM (inactive) | GI50 (MCF7): > 100 µM (inactive) | GI50 (CCRF-CEM): > 100 µM (inactive) | GI50 (NCI-H460): > 100 µM (inactive) | GI50 (U-251): > 100 µM (inactive) | GI50 (M14): > 100 µM (inactive) | GI50 (IGROV-1): > 100 µM (inactive) | GI50 (MDA-MB-231): > 100 µM (inactive) | GI50 (MDA-MB-435): > 100 µM (inactive) | GI50 (COLO 205): > 100 µM (inactive) | GI50 (786-0): > 100 µM (inactive) | GI50 (Hs-578T): > 100 µM (inactive) | GI50 (A549): > 100 µM (inactive) | GI50 (SNB-75): 84.3 µM (inactive) | GI50 (PC-3): > 100 µM (inactive) | GI50 (RPMI-8226): > 100 µM (inactive) | GI50 (SF-539): > 100 µM (inactive) | GI50 (OVCAR-5): > 100 µM (inactive) | GI50 (SW-620): > 100 µM (inactive) | GI50 (UACC-257): > 100 µM (inactive) | GI50 (ACHN): > 100 µM (inactive) | GI50 (MDA-N): > 100 µM (inactive) | GI50 (TK-10): > 100 µM (inactive) | GI50 (SK-MEL-28): > 100 µM (inactive) | GI50 (EKVX): > 100 µM (inactive) | GI50 (LOX IMVI): > 100 µM (inactive) | GI50 (HT-29): > 100 µM (inactive) | GI50 (UO-31): > 100 µM (inactive) | GI50 (NCI-H226): > 100 µM (inactive) | GI50 (BT-549): > 100 µM (inactive) | GI50 (HCC 2998): > 100 µM (inactive) | GI50 (KM12): > 100 µM (inactive) | GI50 (K562): > 100 µM (inactive) | GI50 (A498): > 100 µM (inactive) | GI50 (Malme-3M): > 100 µM (inactive) | GI50 (HOP-62): > 100 µM (inactive) | GI50 (NCI-H23): > 100 µM (inactive) | GI50 (HOP-92): > 100 µM (inactive) | GI50 (HL-60): > 100 µM (inactive)
